Literature values as cited in article PMC9370779, “Traditional Medicinal Uses, Phytochemistry, Biological Properties, and Health Applications of Vitex sp” (Plants, 2022).
“Also recorded” adds a separate entry of the source. Like-named read-outs stand apart in the source and are kept apart here.

Key:
[1] = system: HCT 116 cells; set-up: method as in PMID 28602939
[2] = set-up: method as in PMID 28602939; details: cell line not stated
[3] = system: Topoisomerase-1 (Top1); set-up: method as in PMID 28602939
[4] = read-out: antioxidant effects, IC50 value
[5] = system: α-glucosidase
[6] = system: human liver carcinoma (HepG2) cell lines; set-up: method as in PMID 27118321
[7] = system: COX-2; set-up: method as in PMID 31302252
[8] = system: NF-κB signal pathways; set-up: method as in PMID 31302252
[9] = system: IL-6; set-up: method as in PMID 31302252
[10] = system: interleukin 1-beta (IL-1β); set-up: method as in PMID 31302252
[11] = system: inducible nitric oxide synthase (iNOS); set-up: method as in PMID 31302252
[12] = system: LPS-induced NO production; set-up: method as in PMID 31302252
[13] = system: hepatocyte-derived carcinoma (HuH-7) cells; set-up: method as in PMID 18595136
[14] = system: lipopolysaccharide-induced nitric oxide (NO) production; set-up: method as in doi:10.1002/hlca.201600022
[15] = set-up: method as in PMID 29343985; details: mice, acetic acid abdomen constriction
[16] = set-up: method as in PMID 29343985; details: mice, carrageenan paw oedema
[17] = set-up: method as in PMID 24965780
[18] = set-up: method as in PMID 10579867
[19] = system: LPS-induced NO production in murine microglia (BV-2) cells; set-up: method as in PMID 27118321
[20] = set-up: method as in PMID 27118321; details: ABTS stated for 131
[21] = system: NO production; set-up: method as in PMID 27535293; details: up to a concentration of 100 µM
[22] = system: Musca; set-up: method as in PMID 12444704
[23] = system: nuclear factor-kappa B (NF-κB) pathway in human embryonic kidney (HEK 293) cells; set-up: method as in PMID 29996686; details: TNF-α-induced
[24] = system: gastric cancer (SGC-7901)
[25] = system: esophageal carcinoma (Eca-109)
[26] = system: leukemia (HL-60)
[27] = system: pancreatic cancer (PANC-01)
[28] = system: Musca domestica larvae; set-up: method as in doi:10.1016/S0031-9422(00)94985-9
[29] = system: human nasopharyngeal carcinoma (CNE1) cell line; set-up: method as in PMID 28453270; details: read-out: cytotoxic activity against CNE1, IC50 value
[30] = system: NO production in LPS-induced murine macrophage (RAW 264.7) cells; set-up: method as in PMID 29429059; details: LPS-induced RAW 264.7 macrophages, up to 100 μM
[31] = system: NADP(H); quinone oxireductase type1 (QR1); set-up: method as in PMID 23662135

## C=CC(C)(O)CCC1(C)C2=C(CC(OCC)C1C)C(C)(C)CCC2 (stereo not drawn) [Compound 90]
[1]
  cytotoxicity against HCT 116 cells (rank): most cytotoxic
[2]
  cytotoxicity (in words): moderate cytotoxicity in the micromolar range; also recorded: moderate cytotoxicity at micromolar range
[3]
  Top1 inhibition compared with camptothecin (CPT): equipotent

## C=C1CC[C@@H]2C(C(=O)O)=CO[C@@H](O[C@@H]3O[C@H](COC(=O)c4ccc(O)cc4)[C@@H](O)[C@H](O)[C@H]3O)[C@H]12 [Compound 19, vitexnegheteroin K]
[4]
  IC50: > 20 µM
[5]
  inhibitory effects on α-glucosidase: moderate inhibitory effects

## COc1cc(C2c3c(cc(OC)c(O)c3OC)C=C(C=O)C2COC2OC(CO)C(O)C(O)C2O)ccc1O (stereo not drawn) [Compound 130, vitexnegheteroin F]
[6]
  cytotoxic activity against HepG2 cell lines: moderate cytotoxic activity; also recorded: Exhibited moderate cytotoxic activities against human liver carcinoma (HepG2) cell lines

## CC1=C(CCC2=CCOC2=O)[C@@]2(C)CC[C@H](O)C(C)(C)[C@@H]2CC1 [Compound 98, (3S,5R,10S)-3-hydroxy-labd-8,13-dien-16,15-olide]
[7]
  inhibition of COX-2: able to inhibit; also recorded: inhibition on iNOS, COX-2 and NF-κB signal pathways
[8]
  inhibition of NF-κB signal pathways: able to inhibit; also recorded: inhibition on iNOS, COX-2 and NF-κB signal pathways
[9]
  inhibition of IL-6 level: significant inhibition
[10]
  inhibition of IL-1β level: significant inhibition
[11]
  inhibition of iNOS: able to inhibit; also recorded: inhibition on iNOS, COX-2 and NF-κB signal pathways
[12]
  inhibition of LPS-induced NO production (in words): strong
[12]; read-out: inhibition of NO production, IC50 value
  IC50: 15.8 µM

## C[C@]1(O)CC[C@@H]2C(C(=O)O)=CO[C@@H](O[C@@H]3O[C@H](CO)[C@@H](O)[C@H](O)[C@H]3OC(=O)c3ccc(O)cc3)[C@@H]21 [Compound 1, 2-p-hydroxybenzoyl mussaenosidic acid]
[13]
  protective effects against CCl4-induced toxicity in HuH-7 cells and oxidative stress: Showed protective effects against CCl4-induced toxicity in HuH-7 cells and oxidative stress

## O=C(OCC1=CC(=O)C2C=CO[C@@H](O[C@@H]3O[C@H](CO)[C@@H](O)[C@H](O)[C@H]3O)C12)c1ccc(O)cc1 (stereo partly drawn) [Compound 18, agnusoside]
[14]
  anti-inflammatory activity, LPS-induced NO production: moderate anti-inflammatory activity; also recorded: Exhibited moderate anti-inflammatory activity using NO production induced by lipopolysaccharide

## COC(=O)c1cccc(CCc2cc(=O)c3c(O)c(OC)ccc3o2)c1 [Compound 160]
[15]
  antinociceptive action: successful in reducing nociception and inflammation; also recorded: The derivatives from V. negundo L. were able to reduce inflammation, and nociception, and could be used as a potential source of antinociceptive and anti-inflammatory candidates
[16]
  anti-inflammatory activity: successful in reducing nociception and inflammation; also recorded: The derivatives from V. negundo L. were able to reduce inflammation, and nociception, and could be used as a potential source of antinociceptive and anti-inflammatory candidates

## COc1cc([C@H]2c3c(cc(OC)c(O)c3OC)C=C(C=O)[C@@H]2CO)ccc1O [Compound 128, vitexdoin F]
[17]
  DPPH radical-scavenging activity compared with ascorbic acid: Exhibited stronger activity than ascorbic acid using DPPH radical-scavenging assays

## COC1CC2(CCC3(O2)C(C)CC(OC(C)=O)C2C(C)(C)CCCC23C)C(OC)O1 (stereo not drawn) [Compound 32]
[18]
  antioxidant activity: did not exhibit any activities

## COc1cc(C2c3cc(O)c(O)cc3C=C(C=O)C2COC2OC(CO)C(O)C(O)C2O)ccc1O (stereo not drawn) [Compound 129, vitexnegheteroin E]
[19]
  inhibition of LPS-induced NO production: inhibitory activities
[20]
  antioxidant activity: antioxidant

## C[C@@H]1CC[C@@H]2C(C(=O)O)=CO[C@@H](O[C@@H]3O[C@H](COC(=O)c4ccc(O)cc4)[C@@H](O)[C@H](O)[C@H]3O)[C@H]12 [Compound 20, vitexnegheteroin L]
[4]
  IC50: > 20 µM
[5]
  inhibitory effects on α-glucosidase: moderate inhibitory effects

## O=C(OCC1=C[C@@H](O)[C@@H]2C=CO[C@@H](O[C@@H]3O[C@H](COC(=O)c4ccc(O)cc4)[C@@H](O)[C@H](O)[C@H]3O)[C@H]12)c1ccc(O)cc1 [Compound 21, 10-p-hydroxybenzoyl-6β-hydroxyiridoid 1-O-β-D-(6′-O-p-hydroxybenzoyl)glucopyranoside]
[21]
  inhibition of NO production: did not inhibit; also recorded: No inhibitory activity on NO production

## CC(C)(O)CCC[C@](C)(O)C1CC[C@@]2(O)C3=CC(=O)[C@@H]4C[C@@H](O)[C@@H](O)C[C@]4(C)C3[C@H](O)C[C@]12C (stereo partly drawn) [Compound 110, scabrasterone]
[22]
  molting activity in the Musca bioassay: very weak molting activity

## CCOC1C=C(CCC2(O)C(C)CC(OC(C)=O)C3C(C)(C)CCCC32C)C(=O)O1 (stereo not drawn) [Compound 94, viterotulin C]
[23]
  inhibition rates of NF-κB activation: 66.09 ± 11.49

## CC1C(C=O)CCC2(C(=O)O)CCC3(C)C(=CCC4C5(C)CCC(O)C(C)(C)C5CCC43C)C12 (stereo not drawn) [Compound 147, 3β-hydroxy-30-al-urs-12-en-28-oic acid]
[24]
  cytotoxic activity against SGC-7901: Exhibited cytotoxic activity against HL-60, SGC-7901, PANC-01, and Eca-109 cell lines
[25]
  cytotoxic activity against Eca-109: Exhibited cytotoxic activity against HL-60, SGC-7901, PANC-01, and Eca-109 cell lines
[26]
  cytotoxic activity against HL-60: Exhibited cytotoxic activity against HL-60, SGC-7901, PANC-01, and Eca-109 cell lines
[27]
  cytotoxic activity against PANC-01: Exhibited cytotoxic activity against HL-60, SGC-7901, PANC-01, and Eca-109 cell lines

## CC(=O)OC1CC(C)C(O)(CCC2=CC(=O)OC2)C2(C)CCCC(C)(C)C12 (stereo not drawn) [Compound 95, vitexilactone D]
[23]
  inhibition rates of NF-κB activation: 57.30 ± 15.70

## CC(C)(O)C(O)CC[C@](C)(O)[C@H]1CC[C@@]2(O)C3=CC(=O)[C@@H]4C[C@@H](O)[C@@H](O)C[C@]4(C)C3CC[C@]12C (stereo partly drawn) [Compound 103, pinnatasterone]
[28]
  activity against Musca domestica larvae: Exhibited weak activity against M. domestica larvae

## CC(C(=O)O)c1ccc(-c2ccccc2)c(F)c1 (stereo not drawn) [flurbiprofen]
Cyclic mastalgia, premenopausal women, V. agnus-castus fruit 40 mg
  symptoms of mastalgia: significant reduction
In vivo
  harmful effects: no harmful effects

## C[C@@H]1CC[C@H]2C(C)(C)CCC[C@]2(C)[C@@]1(O)CCc1cc[nH]c1C#N [Compound 79, vitepyrroloid A]
[29]
  IC50: 8.7 µM

## C[C@@H]1C[C@@H](O)C2C(C)(C)[C@@H](O[C@@H]3O[C@H](CO)[C@@H](O)[C@H](O)[C@H]3O)CC[C@]2(C)[C@@]1(O)CCC1=CCOC1=O (stereo partly drawn) [Compound 96, (3S,5S,6S,8R,9R,10S)-3,6,9-trihydroxy-13(14)-labdean-16,15-olide-3-O-β-D-gluco-pyranoside]
[30]
  inhibitory effect on NO production (in words): No inhibitory activity on NO production in LPS-induced RAW 264.7 macrophages up to concentration of 100 μM

## COc1ccc2oc(CC(O)c3cccc(C(=O)O)c3)cc(=O)c2c1O (stereo not drawn) [Compound 161]
[15]
  antinociceptive action: successful in reducing nociception and inflammation; also recorded: The derivatives from V. negundo L. were able to reduce inflammation, and nociception, and could be used as a potential source of antinociceptive and anti-inflammatory candidates
[16]
  anti-inflammatory activity: successful in reducing nociception and inflammation; also recorded: The derivatives from V. negundo L. were able to reduce inflammation, and nociception, and could be used as a potential source of antinociceptive and anti-inflammatory candidates

## CC(=O)OC1CC(C)C(O)(CCC2=CC(=O)NC2)C2(C)CCCC(C)(C)C12 (stereo not drawn) [Compound 55, vitexlactam C]
[31]
  QR1 induction activity: moderate results; also recorded: Compound 55 showed moderate result on NADP(H); quinone oxireductase type1 (QR1) induction activity
